# Reference: US8389027B2 (priority 2008, dated 2013)
# Tests used:
# [1] = test system: rice or barley leaf tissue; type: in vivo
# wild-type S. pombe [2] = type: cell-based, Schizosaccharomyces pombe
# Zebra fish larvae heart = type: in vivo, Danio rerio; settings: at 26 (h of treatment); control 12.71
# [3] = test system: Magnaporthe Guy11 on detached barley leaf; type: in vivo, Magnaporthe grisea; settings: 200 μM
# [4] = test system: wild-type M. grisea Guy11 on rice leaf sheath or onion epidermis; type: in vivo, Magnaporthe grisea; settings: summary statement
# [5] = test system: S. pombe strain expressing M. grisea Abc3 (MBY 2838); type: cell-based, Schizosaccharomyces pombe; settings: MBY 2838, compound in growth medium
# wild-type S. pombe [6] = assay: Estimation of minimum inhibitory concentration for S. pombe; type: cell-based, Schizosaccharomyces pombe; settings: different concentrations, 6 h incubation
# Method: Approximately, 1×10^7 cells/ml from overnight grown culture of MBY 104 was inoculated in 20 ml fresh YES medium in 250 ml flasks. The cells were incubated at 25° C. on a shaker in absence or presence of different concentrations of digoxin. A stock of 1 mM standard glycosides (Sigma Aldrich, USA) was prepared by adding 7.8 mg, 3.9 mg, and 7.28 mg of digoxin, digoxigenin, and ouabain, respectively, in 10 ml of 50% ethanol. A working stock of 200 μM solution was prepared by diluting 1 mM stock with fresh YES medium. Further dilutions were made from this working stock by adjusting total volume with YES to 20 ml. Cell density of untreated or treated wild-type yeast cells was checked in terms of absorbance after every one hour over 5 to 6 generations. Experiments were performed in duplicate each time and confirmed by several biological replicates.
# Wild-type S. pombe cells were grown in absence or presence of different concentrations of digoxin, digoxigenin, or ouabain and growth kinetics was studied over 6-8 h.
smiles,measurement,setting,value
C[C@H]1O[C@@H](O[C@H]2[C@@H](O)C[C@H](O[C@H]3[C@@H](O)C[C@H](O[C@H]4CC[C@@]5(C)[C@H](CC[C@@H]6[C@@H]5C[C@@H](O)[C@]5(C)[C@@H](C7=CC(=O)OC7)CC[C@]65O)C4)O[C@@H]3C)O[C@@H]2C)C[C@H](O)[C@@H]1O [digoxin],elicitor-like response in the host plants,[1]; exogenous application to leaf tissue,induced hypersensitive reaction
same,"H2O2 level as Cerium perhydroxide precipitate (CeCl3 staining, TEM)","[1]; treated leaf tissue, 48 h",accumulation of Cerium perhydroxide precipitate in the cell wall and cell membrane
same,state of host cells upon treatment,"[1]; treated leaf tissue, TEM",plasmolysis
same,"cell density (OD600 nm) of S. pombe, growth kinetics",wild-type S. pombe [2],inhibitory effects
same,heart rate (time taken for 20 beats),Zebra fish larvae heart,13.79 s
same,disease symptoms on detached barley leaf,[3]; controls symptomatic from day 3,failed to elicit any disease symptoms
same,"disease symptoms, leaves inoculated with 100 conidia per droplet","[3]; 6 dpi, 100 conidia per droplet",did not show any symptoms
same,severity of disease compared to control leaves,[3]; day 6 post inoculation,significantly reduced
same,appressorial function of host penetration,[4],blocked appressorial function of host penetration
same,effect on S. pombe cells expressing M. grisea Abc3p,[5],did not show any effects
same,absorbance of treated S. pombe cells,wild-type S. pombe [6],decrease in absorbance in a dose dependent manner
